Assay results taken from ChEMBL document CHEMBL1201862, “PubChem BioAssay data set” (2004).
The source made the active and inactive calls.

How the values were obtained:
[1] = intracellular Trypanosoma cruzi inhibitors in host cells – cell-based, plate reader, cherry-pick samples, set 3, dose response (AID 651818); type: functional;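 also: compounds incubated with infected cells for about four days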
[2] = A cytotoxicity screen of small molecule inhibitors of the PhoP region in Salmonella typhi identified in the primary screen. [Related pubchem assays: 1850, 1864, 1985 ]; type: functional
[3] = target: T1, Sentrin-specific protease 8 (Homo sapiens, UniProt Q96LD8); type: functional
T1 sequence (Q96LD8 whole entry): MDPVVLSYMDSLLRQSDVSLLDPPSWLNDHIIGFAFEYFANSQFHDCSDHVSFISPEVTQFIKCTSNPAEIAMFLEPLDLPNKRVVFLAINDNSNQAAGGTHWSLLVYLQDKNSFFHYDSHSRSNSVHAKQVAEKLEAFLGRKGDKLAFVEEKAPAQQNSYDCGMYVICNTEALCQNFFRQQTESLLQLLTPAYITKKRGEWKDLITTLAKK

[4] = target: T1, Sentrin-specific protease 8; type: functional; remark: listed apart in the source
Escherichia coli = assay: microbe, parasite or virus in culture
[5] = target: Glucose-6-phosphate 1-dehydrogenase (Homo sapiens, UniProt P11413); assay: inhibition of Homo sapiens G6PD, dose series – biochemical, fluorescence, selectivity assay for P. falciparum G6PD inhibitor project, dose response (AID 504792); type: functional
Sequence of Glucose-6-phosphate 1-dehydrogenase (P11413 whole entry): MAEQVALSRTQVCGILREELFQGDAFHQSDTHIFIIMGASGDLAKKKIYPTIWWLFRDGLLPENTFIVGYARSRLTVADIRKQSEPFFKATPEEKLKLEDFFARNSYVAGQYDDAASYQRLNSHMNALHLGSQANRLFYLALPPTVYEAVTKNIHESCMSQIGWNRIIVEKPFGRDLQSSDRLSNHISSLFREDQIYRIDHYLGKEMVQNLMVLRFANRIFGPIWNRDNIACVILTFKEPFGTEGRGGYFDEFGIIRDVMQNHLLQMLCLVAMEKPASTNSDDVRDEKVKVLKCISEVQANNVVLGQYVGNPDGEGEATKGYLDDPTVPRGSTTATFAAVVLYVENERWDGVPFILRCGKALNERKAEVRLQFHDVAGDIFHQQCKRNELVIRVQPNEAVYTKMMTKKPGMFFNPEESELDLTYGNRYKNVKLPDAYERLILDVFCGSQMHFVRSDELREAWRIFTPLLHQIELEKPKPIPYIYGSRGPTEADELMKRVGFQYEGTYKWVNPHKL

Cytochrome P450 3A4 = Cytochrome P450 3A4 (Homo sapiens, UniProt P08684); conditions: Potency;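 also: confirmatory qHTS run detecting inhibitors and substrates of CYP3A4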
Sequence of Cytochrome P450 3A4 (P08684 whole entry): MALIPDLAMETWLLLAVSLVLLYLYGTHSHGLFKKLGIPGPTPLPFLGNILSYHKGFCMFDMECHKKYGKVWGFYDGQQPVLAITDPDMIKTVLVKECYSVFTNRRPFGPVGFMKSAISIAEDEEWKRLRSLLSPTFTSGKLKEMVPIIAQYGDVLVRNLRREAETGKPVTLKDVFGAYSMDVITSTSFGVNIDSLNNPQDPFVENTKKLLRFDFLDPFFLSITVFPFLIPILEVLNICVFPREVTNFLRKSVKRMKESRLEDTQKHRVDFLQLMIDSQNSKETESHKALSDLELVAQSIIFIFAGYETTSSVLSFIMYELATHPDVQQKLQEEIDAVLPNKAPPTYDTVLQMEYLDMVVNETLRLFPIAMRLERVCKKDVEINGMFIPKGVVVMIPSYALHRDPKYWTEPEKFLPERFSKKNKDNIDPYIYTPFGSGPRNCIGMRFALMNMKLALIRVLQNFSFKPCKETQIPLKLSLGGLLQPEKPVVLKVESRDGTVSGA

[6] = target: T2, Histone-lysine N-methyltransferase NSD2 (Homo sapiens, UniProt O96028); type: biochemical
T2 sequence (O96028 whole entry): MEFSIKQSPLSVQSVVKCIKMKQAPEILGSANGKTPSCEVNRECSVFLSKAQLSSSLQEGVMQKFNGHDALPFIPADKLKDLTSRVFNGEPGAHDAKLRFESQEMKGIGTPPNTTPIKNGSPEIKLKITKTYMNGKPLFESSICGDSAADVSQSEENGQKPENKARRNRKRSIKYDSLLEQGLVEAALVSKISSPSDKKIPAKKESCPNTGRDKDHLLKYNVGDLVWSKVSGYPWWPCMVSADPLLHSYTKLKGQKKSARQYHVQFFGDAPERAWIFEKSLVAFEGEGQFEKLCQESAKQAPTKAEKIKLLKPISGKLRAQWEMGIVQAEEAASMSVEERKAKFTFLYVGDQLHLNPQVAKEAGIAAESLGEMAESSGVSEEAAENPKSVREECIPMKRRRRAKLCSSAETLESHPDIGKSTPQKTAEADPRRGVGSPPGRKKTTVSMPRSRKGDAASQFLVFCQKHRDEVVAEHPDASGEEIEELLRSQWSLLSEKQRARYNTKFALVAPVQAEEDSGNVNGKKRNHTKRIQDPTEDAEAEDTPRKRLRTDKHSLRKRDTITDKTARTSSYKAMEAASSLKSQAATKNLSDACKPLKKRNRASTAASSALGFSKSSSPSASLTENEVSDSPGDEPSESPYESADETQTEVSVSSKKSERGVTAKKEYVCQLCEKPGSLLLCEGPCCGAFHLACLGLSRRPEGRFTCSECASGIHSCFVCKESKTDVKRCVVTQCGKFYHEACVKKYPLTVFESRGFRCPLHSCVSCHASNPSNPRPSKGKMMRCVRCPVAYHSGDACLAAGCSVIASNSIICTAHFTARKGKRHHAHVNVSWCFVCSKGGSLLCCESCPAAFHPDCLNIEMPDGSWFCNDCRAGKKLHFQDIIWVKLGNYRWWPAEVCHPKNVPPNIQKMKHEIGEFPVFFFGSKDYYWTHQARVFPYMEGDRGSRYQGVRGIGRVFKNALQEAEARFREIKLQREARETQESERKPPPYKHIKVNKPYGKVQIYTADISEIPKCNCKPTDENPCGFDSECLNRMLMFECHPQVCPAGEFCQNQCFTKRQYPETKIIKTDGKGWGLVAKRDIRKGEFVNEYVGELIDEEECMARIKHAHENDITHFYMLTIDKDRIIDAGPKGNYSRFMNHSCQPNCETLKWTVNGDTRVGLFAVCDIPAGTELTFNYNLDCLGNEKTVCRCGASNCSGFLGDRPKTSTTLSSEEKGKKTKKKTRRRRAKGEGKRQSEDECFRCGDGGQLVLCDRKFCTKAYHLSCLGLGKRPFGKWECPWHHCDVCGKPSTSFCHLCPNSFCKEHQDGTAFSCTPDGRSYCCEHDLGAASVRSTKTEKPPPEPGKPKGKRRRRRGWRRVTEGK

Cytochrome P450 2D6 = Cytochrome P450 2D6 (Homo sapiens, UniProt P10635);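 also: CYP2D6 member of a cytochrome P450 panel assay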
Sequence of Cytochrome P450 2D6 (P10635 whole entry): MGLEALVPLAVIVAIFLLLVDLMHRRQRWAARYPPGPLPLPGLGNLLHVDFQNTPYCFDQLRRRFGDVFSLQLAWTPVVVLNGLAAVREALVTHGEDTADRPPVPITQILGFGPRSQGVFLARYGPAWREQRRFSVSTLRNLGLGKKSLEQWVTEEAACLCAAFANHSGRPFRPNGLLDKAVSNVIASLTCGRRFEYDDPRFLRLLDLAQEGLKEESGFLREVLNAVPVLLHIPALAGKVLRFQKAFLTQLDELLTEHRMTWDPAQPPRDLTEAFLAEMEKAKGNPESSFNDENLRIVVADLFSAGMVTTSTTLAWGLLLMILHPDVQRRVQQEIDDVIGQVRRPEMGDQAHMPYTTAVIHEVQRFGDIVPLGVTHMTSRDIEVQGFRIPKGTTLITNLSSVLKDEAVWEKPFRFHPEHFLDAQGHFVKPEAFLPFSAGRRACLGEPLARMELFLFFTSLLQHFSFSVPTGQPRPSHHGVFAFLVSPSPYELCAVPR

Cytochrome P450 2C9 [7] = target: T3, Cytochrome P450 2C9 (Homo sapiens, UniProt P11712)
T3 sequence (P11712 whole entry): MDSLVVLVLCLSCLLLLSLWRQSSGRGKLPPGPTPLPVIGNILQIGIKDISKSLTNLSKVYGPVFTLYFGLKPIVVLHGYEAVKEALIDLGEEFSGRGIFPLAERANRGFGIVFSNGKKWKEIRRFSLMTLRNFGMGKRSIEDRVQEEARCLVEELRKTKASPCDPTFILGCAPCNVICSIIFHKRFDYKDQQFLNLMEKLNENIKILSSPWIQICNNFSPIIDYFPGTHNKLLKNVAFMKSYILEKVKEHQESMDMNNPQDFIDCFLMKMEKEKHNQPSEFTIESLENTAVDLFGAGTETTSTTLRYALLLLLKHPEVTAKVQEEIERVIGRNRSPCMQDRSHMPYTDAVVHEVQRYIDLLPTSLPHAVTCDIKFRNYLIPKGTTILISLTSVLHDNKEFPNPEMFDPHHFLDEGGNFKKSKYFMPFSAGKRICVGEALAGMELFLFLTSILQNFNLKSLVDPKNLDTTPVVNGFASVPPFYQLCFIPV

Beta-galactosidase = Beta-galactosidase (Escherichia coli, UniProt Q8VNN2); assay: Dose response counterscreen for EBI2 assay utilizing the enzyme, b-galactosidase.; type: functional
Sequence of Beta-galactosidase (Q8VNN2 whole entry): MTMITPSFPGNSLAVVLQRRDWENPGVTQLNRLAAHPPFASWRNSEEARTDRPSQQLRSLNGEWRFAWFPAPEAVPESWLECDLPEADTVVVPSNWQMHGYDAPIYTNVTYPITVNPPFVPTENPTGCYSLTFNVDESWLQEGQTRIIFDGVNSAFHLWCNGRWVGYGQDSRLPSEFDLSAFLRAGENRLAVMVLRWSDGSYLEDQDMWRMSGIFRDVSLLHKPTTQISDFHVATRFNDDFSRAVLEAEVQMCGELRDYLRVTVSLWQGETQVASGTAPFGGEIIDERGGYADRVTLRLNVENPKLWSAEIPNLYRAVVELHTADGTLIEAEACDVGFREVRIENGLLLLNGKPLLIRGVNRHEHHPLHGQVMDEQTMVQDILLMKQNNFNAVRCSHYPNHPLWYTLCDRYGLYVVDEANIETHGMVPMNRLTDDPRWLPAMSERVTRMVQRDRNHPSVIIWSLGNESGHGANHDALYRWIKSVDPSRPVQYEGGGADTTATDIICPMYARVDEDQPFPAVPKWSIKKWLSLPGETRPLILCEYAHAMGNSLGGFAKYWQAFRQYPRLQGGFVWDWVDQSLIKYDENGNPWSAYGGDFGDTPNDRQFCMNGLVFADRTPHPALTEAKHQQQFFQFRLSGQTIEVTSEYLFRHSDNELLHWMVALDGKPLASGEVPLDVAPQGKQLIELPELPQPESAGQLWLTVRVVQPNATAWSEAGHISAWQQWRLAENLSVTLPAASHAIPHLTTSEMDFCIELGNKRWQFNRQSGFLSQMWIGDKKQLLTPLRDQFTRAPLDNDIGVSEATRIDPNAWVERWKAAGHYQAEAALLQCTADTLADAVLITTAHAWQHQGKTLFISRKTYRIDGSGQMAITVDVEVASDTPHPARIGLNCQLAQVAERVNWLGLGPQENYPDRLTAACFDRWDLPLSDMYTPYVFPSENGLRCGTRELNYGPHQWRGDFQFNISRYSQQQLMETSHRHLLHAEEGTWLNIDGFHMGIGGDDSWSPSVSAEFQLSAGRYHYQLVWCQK

HT-1080 = assay: HT1080 cell viability loss – fluorescence readout (AID 620); type: functional, cell-based; conditions: Homo sapiens
[8] = target: Luciferin 4-monooxygenase (Photinus pyralis, UniProt P08659); assay: Counter Screen for Luciferase-based Assay Positives. [Related pubchem assays: 620, 618, 411 ]
Sequence of Luciferin 4-monooxygenase (P08659 whole entry): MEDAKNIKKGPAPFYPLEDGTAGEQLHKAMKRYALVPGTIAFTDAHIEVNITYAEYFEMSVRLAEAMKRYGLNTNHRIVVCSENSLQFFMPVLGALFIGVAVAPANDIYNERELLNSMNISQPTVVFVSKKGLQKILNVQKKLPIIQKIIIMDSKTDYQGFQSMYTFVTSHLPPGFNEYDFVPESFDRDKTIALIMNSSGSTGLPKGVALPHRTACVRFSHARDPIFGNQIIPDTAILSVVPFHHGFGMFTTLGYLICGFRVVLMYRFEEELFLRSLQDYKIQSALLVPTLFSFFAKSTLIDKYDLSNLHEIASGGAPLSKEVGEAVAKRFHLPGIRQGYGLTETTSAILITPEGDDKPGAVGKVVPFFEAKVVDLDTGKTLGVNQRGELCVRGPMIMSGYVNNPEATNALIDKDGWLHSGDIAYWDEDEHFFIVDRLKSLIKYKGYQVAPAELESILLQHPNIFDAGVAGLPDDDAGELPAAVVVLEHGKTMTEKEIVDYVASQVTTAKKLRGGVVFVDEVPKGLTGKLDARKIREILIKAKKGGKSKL

[9] = luciferase reporter signal suppression in cells – H4 neuroglioma cells, luminescence, dose response (AID 1990); type: functional, cell-based
HEK293 = assay: EBV LMP1 TES2 canonical NF-kB signalling blockers – cell-based, HEK293, luciferase, cherry-pick, dose response (AID 588343); type: functional; conditions: Homo sapiens
[10] = Luminescence Cell-Based Dose Response HTS to Identify Inhibitors of 5'UTR Stem-Loop Driven Prion Protein mRNA Translation in H4 Neuroglioblastoma Cells. [Related pubchem assays: 1827 (Project Summary), 1813 (Primary HTS)]; type: functional
[11] = alpha-synuclein stem-loop luciferase translation blockers – H4 neuroglioma cells, luminescence, confirmation (AID 1988); type: functional, cell-based
Vero = assay: viability of Vero cells under compound – cytotoxicity control for flavivirus capping enzyme inhibitors (AID 588742); type: functional; conditions: Chlorocebus sabaeus
Cytochrome P450 2C9 [12] = target: T3, Cytochrome P450 2C9; remark: listed apart in the source

In the case of `C[C@H]1CN([C@@H](C)CO)C(=O)Cc2cc(NC(=O)CCC(F)(F)F)ccc2O[C@H]1CN(C)Cc1ccc(C(=O)Nc2ccccc2N)cc1`, the AC50 [1] is reported as 5.91 µM (active).
In the case of `Cc1cc(Cl)ccc1OCCCC(=O)N1CCCc2ccccc21`, the EC50 [2] is reported as > 50 µM (active).
In the case of `CCOC(=O)c1ccc(NC(=O)CN2CCc3ccccc3C2)cc1`, the IC50 [3] is reported as > 100 µM (inactive) and the IC50 [4] is reported as 21.6 µM (active).
With `COc1ccccc1NS(=O)(=O)c1cccc(NC2=NC(=N)c3ccccc32)c1` the AC50 (Escherichia coli) was 99.5 µM (active).
For `CC(C)Sc1nc2c(c(=O)[nH]c(=O)n2C)n1CCc1ccccc1`, the AC50 (Escherichia coli) was 33.2 µM (active).
For `CCN1CCCC1CNC(=O)c1cc2cc(F)ccc2[nH]1` (centres undefined), the EC50 [2] was > 50 µM (active).
With `COc1ccc(CCn2c(NN)nc3c2c(=O)[nH]c(=O)n3C)cc1` the IC50 [5] was 50.2 µM (inactive).
For `O=C(N/N=C/c1cc(Br)cc(Br)c1O)c1ccccc1O`, the AC50 [1] was 1.85 µM (active).
With `O=C(Nc1ccccc1)Oc1cccnc1O` the EC50 [2] was > 50 µM (active).
With `COc1ccc(NC(=O)c2cc(Br)c(Br)s2)cn1` the EC50 [2] was > 50 µM (active).
With `CCCn1c(-c2ccc(F)cc2)nc2c(NCC3CCCN3CC)nc(C)nc21` (centres undefined) the AC50 (Cytochrome P450 3A4) was 15.8 µM (inconclusive).
For `COc1ccccc1NC(=O)CN1CCN(c2ccccc2)CC1`, the EC50 [2] was > 50 µM (active).
With `COc1cc(OC)c([N+](=O)[O-])cc1/C=N/NC(=O)c1ccncc1` the AC50 [6] was > 20 µM (inactive), the IC50 [3] was 12.3 µM (active) and the IC50 [4] was 9.81 µM (active).
In the case of `Cc1ccc(NS(=O)(=O)c2ccccc2Cl)c2c1CC(C)(C)O2`, the AC50 (Cytochrome P450 2D6) is reported as 15.8 µM (inconclusive), the AC50 (Cytochrome P450 2C9 [7]) is reported as “inconclusive” and the IC50 [5] is reported as > 80 µM (inactive).
In the case of `COc1ccc(C2CC(=O)c3ccc(OC)cc3O2)cc1` (centres undefined) [LIQUIRITIGENIN DIMETHYL ETHER], the AC50 (Cytochrome P450 3A4) is reported as 20 µM (inconclusive).
For `CCn1cc(/C=C/C(=O)Nc2ccn(Cc3c(F)c(F)cc(F)c3F)n2)cn1`, the IC50 [3] was 28.9 µM (active) and the IC50 [4] was 9.64 µM (active).
For `C[C@@H]1CCCCO[C@H](CN(C)S(=O)(=O)c2ccc(Cl)cc2)[C@@H](C)CN([C@H](C)CO)C(=O)c2cc(NC(=O)Nc3ccc(C(F)(F)F)cc3)ccc2O1`, the AC50 [1] was 3 µM (active).
For `CC1=C(/C=C/C(C)=C/C=C/C(C)=C/C=O)C(C)(C)CCC1` [RETINAL], the AC50 (Cytochrome P450 3A4) was 12.6 µM (inconclusive).
With `CC(=O)N(Cc1ccc(F)cc1)c1cccc(C)c1C` the AC50 (Escherichia coli) was 23.7 µM (active).
With `COc1cccc(C(=O)Nc2nnc(C(C)C)s2)c1` the IC50 [5] was 52.7 µM (inactive).
With `O=C1CCN(Cc2ccccc2)C=C1c1ccc2ccccc2c1` the IC50 (Beta-galactosidase) was > 80 µM (inactive).
For `Cn1c(-c2ccccc2)cnc1SCC(=O)N1CCCCC1`, the EC50 (HT-1080) was > 50 µM (not active), the EC50 [8] was 22.8 µM (active) and the EC50 [9] was 8.1 µM (inconclusive). The AC50 (HEK293) was 2.47 µM (active), the EC50 [10] was 5.72 µM (active) and the EC50 [11] was 3.2 µM (active).
For `Clc1ccc2nc(-c3ccc4c(c3)OCO4)cn2c1`, the AC50 (HEK293) was 4.13 µM (active) and the IC50 [5] was > 80 µM (inactive).
In the case of `Cc1ccc(S(=O)(=O)Nc2ccc3c(c2)CC(=O)N([C@@H](C)CO)C[C@@H](C)[C@@H](CN(C)S(=O)(=O)c2ccc(C)cc2)O3)cc1`, the AC50 [1] is reported as 6.15 µM (active).
In the case of `CCCCCCC(=O)N(O)C1CC(=O)N(Cc2ccccc2)C1=O` (centres undefined), the EC50 [2] is reported as > 50 µM (active).
In the case of `CC1(C)CC[C@]2(C(=O)O)C(O)C[C@@]3(C)C(=CCC4[C@@]5(C)CCC(O)C(C)(C)C5CC[C@@]43C)C2C1` (some centres undefined), the AC50 (Cytochrome P450 3A4) is reported as 15.8 µM (inconclusive).
For `C[C@H]1CN([C@@H](C)CO)C(=O)c2cccc(NC(=O)Nc3ccc(F)cc3)c2O[C@H]1CN(C)Cc1ccc(C(=O)Nc2ccccc2N)cc1`, the AC50 [1] was 2.74 µM (active).
For `C[C@@H]1CN([C@@H](C)CO)C(=O)c2cccc(NC(=O)Nc3ccc(F)cc3)c2O[C@H]1CN(C)Cc1ccc(C(=O)Nc2ccccc2N)cc1`, the AC50 [1] was 0.46 µM (active).
In the case of `CCC(CC)C(=O)N(C)c1c(C)nc2c(OCC=C(C)C)cccn12`, the IC50 [3] is reported as > 100 µM (inactive) and the IC50 [4] is reported as 33.4 µM (active).
In the case of `COc1ccc(CCn2c(NN=C(C)C)nc3c2c(=O)[nH]c(=O)n3C)cc1`, the IC50 [5] is reported as 77.8 µM (inactive).
In the case of `CC(=O)OC1CC2C(C)(C)C(O)CCC2(C)C2CC[C@]3(C)C(=CC(=O)OC3c3ccoc3)C12C` (some centres undefined), the AC50 (Cytochrome P450 3A4) is reported as 39.8 µM (inconclusive).
In the case of `C[C@H](CO)N1C[C@H](C)[C@@H](CN(C)Cc2ccc(C(=O)Nc3ccccc3N)cc2)Oc2c(NC(=O)Nc3ccccc3)cccc2C1=O`, the AC50 [1] is reported as 1.61 µM (active).
In the case of `COc1ccccc1-c1cc2nc(C)c(CCC(=O)NC(C)CCc3ccco3)c(C)n2n1` (centres undefined), the EC50 [2] is reported as > 50 µM (active).
For `COc1ccc(C(=O)c2c3ccc([N+](=O)[O-])cc3[n+]([O-])n2CCCN)cc1`, the CC50 (Vero) was 30.6 µM (active), the IC50 [3] was 14.4 µM (active) and the IC50 [4] was 9.21 µM (active).
With `Cc1ccccc1NC1=NC(=S)N(c2ccccc2)C12CCOC(C)(C)C2` (centres undefined) the AC50 (Cytochrome P450 2C9 [12]) was 11.2 µM (inconclusive) and the AC50 (Escherichia coli) was 22.6 µM (active).
With `COC(=O)C1(S(=O)(=O)C2(C(=O)OC)CCCC2)CCCC1` the AC50 (Escherichia coli) was > 150 µM (inactive).
For `CN1CCN(C(=O)/C=C\c2ccc(Cl)cc2)CC1`, the IC50 (Beta-galactosidase) was > 80 µM (inactive).
With `O=C(Nc1ccc(Oc2ccccc2)nc1)C1CCCCN1Cc1cccc(O)c1` (centres undefined) the IC50 (Beta-galactosidase) was > 80 µM (inactive).
With `O=C(/C=C(\O)c1ccccc1)c1ccccc1O` [2',beta-DIHYDROXYCHALCONE] the AC50 (Cytochrome P450 3A4) was 15.8 µM (inconclusive).
For `Cc1ccc(C(=O)NNC(=O)CSc2nnc(-c3ccccc3)n2Cc2ccccc2)cc1`, the IC50 (Beta-galactosidase) was > 80 µM (inactive).
With `O=C(CSc1cccc[n+]1[O-])Nc1ccccc1C(F)(F)F` the AC50 (Escherichia coli) was 48.6 µM (active).
With `C[N+]1(C)CCC(=C2c3ccccc3CC(=O)c3sccc32)CC1` the IC50 [3] was 30.4 µM (active) and the IC50 [4] was 12.6 µM (active).
